One test deals with T1, ASIC2a (Rattus norvegicus, UniProt Q62962).
T1 construct: gene Asic2; full-length, expressed alone in X. laevis oocytes (3 ng cRNA, pGH19); homotrimer
T1 sequence (Q62962 1-512): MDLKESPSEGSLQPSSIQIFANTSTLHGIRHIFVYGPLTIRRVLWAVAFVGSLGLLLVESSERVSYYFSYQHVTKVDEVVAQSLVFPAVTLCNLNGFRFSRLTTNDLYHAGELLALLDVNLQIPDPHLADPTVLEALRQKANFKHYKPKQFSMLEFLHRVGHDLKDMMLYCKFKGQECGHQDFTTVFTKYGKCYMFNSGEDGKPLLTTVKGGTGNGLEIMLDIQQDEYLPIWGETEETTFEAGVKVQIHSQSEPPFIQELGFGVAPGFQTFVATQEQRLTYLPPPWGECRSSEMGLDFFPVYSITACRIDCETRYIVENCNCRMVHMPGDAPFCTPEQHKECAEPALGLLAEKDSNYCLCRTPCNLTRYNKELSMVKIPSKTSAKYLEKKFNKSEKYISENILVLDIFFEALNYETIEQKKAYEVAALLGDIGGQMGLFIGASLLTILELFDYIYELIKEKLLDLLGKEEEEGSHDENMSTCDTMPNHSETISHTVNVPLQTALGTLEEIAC
In words: two-electrode voltage clamp, X. laevis oocytes. The test is classed as cell-based. To be noted: acid-induced (pH 4) plateau current, -70 mV.

The target of the next test is T2, ASIC2a/t-ASIC2b (Rattus norvegicus, UniProt A0A0G3F2N6+Q62962).
T2 construct: gene Asic2; X. laevis oocytes injected with 3 ng Asic2a + 6 ng Asic2b-type cRNA; t-ASIC2b lacks first 71 N-terminal residues; heterotrimer, stoichiometry unknown (mix with 0, 1 or 2 t-ASIC2b)
T2 sequence (A0A0G3F2N6 1-492): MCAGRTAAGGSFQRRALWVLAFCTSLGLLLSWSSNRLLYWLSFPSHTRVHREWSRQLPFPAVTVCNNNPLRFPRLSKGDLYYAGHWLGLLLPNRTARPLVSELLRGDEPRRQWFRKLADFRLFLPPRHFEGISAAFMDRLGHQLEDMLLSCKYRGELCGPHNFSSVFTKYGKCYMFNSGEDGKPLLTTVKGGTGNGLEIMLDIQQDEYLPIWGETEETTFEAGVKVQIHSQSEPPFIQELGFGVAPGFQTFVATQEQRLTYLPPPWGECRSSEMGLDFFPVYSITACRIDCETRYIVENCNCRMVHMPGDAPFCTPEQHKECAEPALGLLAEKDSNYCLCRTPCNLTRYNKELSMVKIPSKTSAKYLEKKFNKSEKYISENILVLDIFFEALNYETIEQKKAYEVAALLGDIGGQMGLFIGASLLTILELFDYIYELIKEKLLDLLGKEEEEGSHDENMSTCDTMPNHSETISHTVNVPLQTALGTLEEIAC
T2 sequence (Q62962 1-563 isoform Q62962-2): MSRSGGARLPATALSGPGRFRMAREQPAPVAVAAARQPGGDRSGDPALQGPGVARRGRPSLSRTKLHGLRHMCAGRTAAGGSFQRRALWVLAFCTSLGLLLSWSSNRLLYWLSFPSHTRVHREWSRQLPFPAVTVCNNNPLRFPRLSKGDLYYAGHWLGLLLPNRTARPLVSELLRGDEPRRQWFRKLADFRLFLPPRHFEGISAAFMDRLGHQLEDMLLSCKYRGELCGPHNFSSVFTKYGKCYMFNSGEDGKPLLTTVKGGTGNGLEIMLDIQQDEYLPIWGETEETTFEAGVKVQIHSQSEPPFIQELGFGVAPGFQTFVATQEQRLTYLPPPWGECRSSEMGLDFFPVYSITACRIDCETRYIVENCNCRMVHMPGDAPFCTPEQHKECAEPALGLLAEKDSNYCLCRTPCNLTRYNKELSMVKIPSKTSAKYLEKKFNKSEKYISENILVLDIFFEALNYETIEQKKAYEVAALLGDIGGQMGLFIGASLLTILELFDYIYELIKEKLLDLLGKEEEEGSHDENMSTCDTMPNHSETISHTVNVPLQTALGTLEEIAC
The experiment in a line: two-electrode voltage clamp, X. laevis oocytes. In kind it is cell-based.

Molecules are shown by their SMILES. pIC50: −log10 of the molar value.

Usually pIC50 stands for −log10 of the IC50, conventionally taken in molar units. Higher therefore signals a small IC50.

`N=C(N)NC(=O)c1nc(Cl)c(N)nc1N` [amiloride]: the “% inhibition at 100 μM” value on ASIC2a is “did not alter significantly the apparent low sensitivity of ASIC2a to amiloride”. The negative-log IC50 (pIC50) against ASIC2a/t-ASIC2b is about 4.30.

The values are drawn from article PMC8410034, “A variant of ASIC2 mediates sodium retention in nephrotic syndrome” (JCI Insight, 2021).
